Where two headings read alike, the source gives them in different places.
Source text: Absorption of nicotine from the oral cavity to the systemic circulation is dependent on the pH of the saliva and the […] of nicotine, which is about 7.8. Assuming a pH of the saliva of 6.8 only about 10% of the nicotine in saliva will be in the free base form. Thus, in order to promote absorption of nicotine in a free base form, which is the form predomi-nantly absorbed through the mucosa, the pH of the saliva must be increased. At a pH of 8.8 about 90% of the nicotine in saliva will then be in the free base form.

## CN1CCCC1c1cccnc1 (centres unmarked) [nicotine, 3-(1-methyl-2-pyrrolidinyl)-pyridine]
Saliva pH 6.8
  nicotine in saliva in the free base form: about 10%
Saliva pH 8.8
  nicotine in saliva in the free base form: about 90%
